Reference: patent publication US20240343717A1, “MICROBIOCIDAL PYRAZOLE DERIVATIVES” (SYNGENTA CROP PROTECTION AG, priority 2021, published 2024)

Experiments:
[1] = system: Monographella nivalis (Microdochium nivale); assay: Monographella nivalis (Microdochium nivale) / liquid culture (foot rot cereals); format: cell-based; details: growth inhibition photometrically 4-5 days after application, read-out: control of Monographella nivalis
Method: (§1) Example B9: Monographella nivalis (Microdochium nivale)/Liquid Culture (Foot Rot Cereals) Conidia of the fungus from cryogenic storage are directly mixed into nutrient broth (PDB potato dextrose broth). After placing a (DMSO) solution of test compound into a microtiter plate (96-well format), the nutrient broth containing the fungal spores is added. The test plates are incubated at 24° C. and the inhibition of growth is determined photometrically 4-5 days after application.

[2] = system: Pyrenophora teres; assay: Pyrenophora teres / barley / leaf disc preventative (net blotch); format: in vivo; details: foliar, barley leaf segments, inoculated 2 days after application
Method: Example B14: Pyrenophora teres/Barley/Leaf Disc Preventative (Net Blotch) Barley leaf segments cv. Hasso are placed on agar in a multiwell plate (24-well format) and sprayed with the formulated test compound diluted in water. The leaf segments are inoculated with a spore suspension of the fungus 2 days after application. The inoculated leaf segments are incubated at 20° C. and 65% rh under a light regime of 12 h light/12 h darkness in a climate cabinet and the activity of a compound is assessed as disease control compared to untreated when an appropriate level of disease damage appears in untreated check leaf segments (5-7 days after application).

[3] = system: Alternaria solani; assay: Alternaria solani / tomato / leaf disc (early blight); format: in vivo; details: foliar, tomato leaf disks, sprayed 2 days before inoculation, compared to untreated control
Method: Example B1: Alternaria solani/Tomato/Leaf Disc (Early Blight) Tomato leaf disks cv. Baby are placed on agar in multiwell plates (24-well format) and sprayed with the formulated test compound diluted in water. The leaf disks are inoculated with a spore suspension of the fungus 2 days after application. The inoculated leaf disks are incubated at 23° C./21° C.

[4] = system: Glomerella lagenarium (Colletotrichum lagenarium); assay: Glomerella lagenarium (Colletotrichum lagenarium) / liquid culture (anthracnose); format: cell-based; details: Colletotrichum orbiculare, growth inhibition photometrically 3-4 days after application, read-out: control of Glomerella lagenarium
Method: as §1, with “B3: Glomerella lagenarium (Colletotrichum lagenarium)/Liquid” for “B9: Monographella nivalis (Microdochium nivale)/Liquid”, “(Anthracnose)” for “(Foot Rot Cereals)”, “measured” for “determined”, “3-4” for “4-5”

[5] = system: Mycosphaerella graminicola (Septoria tritici); assay: Mycosphaerella graminicola (Septoria tritici) / liquid culture (Septoria blotch); format: cell-based; details: Zymoseptoria tritici, growth inhibition photometrically 4-5 days after application, read-out: control of Mycosphaerella graminicola
Method: as §1, with “B16: Mycosphaerella graminicola (Septoria tritici)/Liquid” for “B9: Monographella nivalis (Microdochium nivale)/Liquid”, “(Septoria Blotch)” for “(Foot Rot Cereals)”

[6] = system: Blumeria graminis f. sp. tritici (Erysiphe graminis f. sp. tritici); assay: Blumeria graminis f. sp. tritici / wheat / leaf disc preventative (powdery mildew on wheat); format: in vivo; details: foliar, wheat leaf segments, inoculated 1 day after application
Method: Example B4: Blumeria graminis f. Sp. Tritici (Erysiphe graminis f. Sp. Tritici)/Wheat/Leaf Disc Preventative (Powdery Mildew on Wheat) Wheat leaf segments cv. Kanzler are placed on agar in a multiwell plate (24-well format) and sprayed with the formulated test compound diluted in water. The leaf disks are inoculated by shaking powdery mildew infected plants above the test plates 1 day after application. The inoculated leaf disks are incubated at 20° C. and 60% rh under a light regime of 24 h darkness followed by 12 h light/12 h darkness in a climate chamber and the activity of a compound is assessed as percent disease control compared to untreated when an appropriate level of disease damage appears on untreated check leaf segments (6-8 days after application).

[7] = system: Mycosphaerella arachidis (Cercospora arachidicola); assay: Mycosphaerella arachidis (Cercospora arachidicola) / liquid culture (early leaf spot); format: cell-based; details: growth inhibition photometrically 4-5 days after application, read-out: control of Mycosphaerella arachidis
Method: as §1, with “B10: Mycosphaerella arachidis (Cercospora arachidicola)/Liquid” for “B9: Monographella nivalis (Microdochium nivale)/Liquid”, “(Early Leaf Spot)” for “(Foot Rot Cereals)”

[8] = system: Botryotinia fuckeliana (Botrytis cinerea); assay: Botryotinia fuckeliana (Botrytis cinerea) / liquid culture (gray mould); format: cell-based; details: growth inhibition photometrically 3-4 days after application, read-out: control of Botryotinia fuckeliana
Method: as §1, with “B2: Botryotinia fuckeliana (Botrytis cinerea)/Liquid” for “B9: Monographella nivalis (Microdochium nivale)/Liquid”, “(Gray Mould)” for “(Foot Rot Cereals)”, “(Vogels” for “(PDB potato dextrose”, “3-4” for “4-5”

Cn1cc(C(C)(CNC(=O)c2cc(-c3ccc(F)cc3F)on2)c2ncccc2Br)cn1 (stereo not shown) [Compound P-53, N-[2-(3-bromo-2-pyridyl)-2-(1-methylpyrazol-4-yl)propyl]-5-(2,4-difluorophenyl) isoxazole-3-carboxamide]
≥ 80%: inhibition of growth at 20 ppm [1] | pest or weed control at 200 ppm [2]

COc1ccnc(C(C)(CNC(=O)c2cc(-c3ccc(F)cc3F)on2)c2cnn(C)c2)c1 (stereo not shown) [Compound P-7, 5-(2,4-difluorophenyl)-N-[2-(4-methoxy-2-pyridyl)-2-(1-methylpyrazol-4-yl)propyl]isoxazole-3-carboxamide]
≥ 80%: pest or weed control at 200 ppm [3] | inhibition of growth at 20 ppm [4] | inhibition of growth at 20 ppm [1] | inhibition of growth at 20 ppm [5]

CC(=O)Nc1ccc(C(C)(CNC(=O)c2cc(-c3ccc(F)cc3F)on2)c2cnn(C)c2)nc1 (stereo not shown) [Compound P-59, N-[2-(5-acetamido-2-pyridyl)-2-(1-methylpyrazol-4-yl)propyl]-5-(2,4-difluorophenyl) isoxazole-3-carboxamide]
≥ 80%: pest or weed control at 200 ppm [6]

CCS(=O)(=O)c1cccc(C(C)(CNC(=O)c2nnc(-c3ccc(F)cc3F)s2)c2cnn(C)c2)n1 (stereo not shown) [Compound P-3, 5-(2,4-difluorophenyl)-N-[2-(6-ethylsulfonyl-2-pyridyl)-2-(1-methylpyrazol-4-yl)propyl]-1,3,4-thiadiazole-2-carboxamide]
≥ 80%: pest or weed control at 200 ppm [2]

C=C(C)COc1cc(Cl)nc(C(C)(CNC(=O)c2cc(-c3ccc(F)cc3F)on2)c2cnn(C)c2)c1 (stereo not shown) [Compound P-68, N-[2-[6-chloro-4-(2-methylallyloxy)-2-pyridyl]-2-(1-methylpyrazol-4-yl)propyl]-5-(2,4-difluorophenyl) isoxazole-3-carboxamide]
≥ 80%: inhibition of growth at 20 ppm [7] | inhibition of growth at 20 ppm [4] | inhibition of growth at 20 ppm [1] | inhibition of growth at 20 ppm [5] | inhibition of growth at 20 ppm [8]

Cn1cc(C(C)(CNC(=O)c2cc(-c3ccc(F)cc3F)on2)c2ccc(Cl)cn2)cn1 (stereo not shown) [Compound P-20, N-[2-(5-chloro-2-pyridyl)-2-(1-methylpyrazol-4-yl)propyl]-5-(2,4-difluorophenyl) isoxazole-3-carboxamide]
≥ 80%: inhibition of growth at 20 ppm [4] | inhibition of growth at 20 ppm [1] | inhibition of growth at 20 ppm [5] | pest or weed control at 200 ppm [2]

Cn1cc(C(C)(CNC(=O)c2cc(-c3ccc(F)cc3F)on2)c2ccc(C#N)cn2)cn1 (stereo not shown) [Compound P-75, N-[2-(5-cyano-2-pyridyl)-2-(1-methylpyrazol-4-yl)propyl]-5-(2,4-difluorophenyl) isoxazole-3-carboxamide]
≥ 80%: pest or weed control at 200 ppm [3] | inhibition of growth at 20 ppm [1] | inhibition of growth at 20 ppm [5] | pest or weed control at 200 ppm [2]

CC(=O)Nc1cccc(C(C)(CNC(=O)c2cc(-c3ccc(F)cc3F)on2)c2cnn(C)c2)n1 (stereo not shown) [Compound P-52, N-[2-(6-acetamido-2-pyridyl)-2-(1-methylpyrazol-4-yl)propyl]-5-(2,4-difluorophenyl) isoxazole-3-carboxamide]
≥ 80%: pest or weed control at 200 ppm [2]

Cn1cc(C(C)(CNC(=O)c2cc(-c3ccc(F)cc3F)on2)c2ncccc2Cl)cn1 (stereo not shown) [Compound P-2, N-[2-(3-chloro-2-pyridyl)-2-(1-methylpyrazol-4-yl)propyl]-5-(2,4-difluorophenyl) isoxazole-3-carboxamide]
≥ 80%: inhibition of growth at 20 ppm [1] | inhibition of growth at 20 ppm [5] | inhibition of growth at 20 ppm [8] | pest or weed control at 200 ppm [2]

COc1ccc(C(C)(CNC(=O)c2cc(-c3ccc(F)cc3F)on2)c2cnn(C)c2)nn1 (stereo not shown) [Compound P-105, 5-(2,4-difluorophenyl)-N-[2-(6-methoxypyridazin-3-yl)-2-(1-methylpyrazol-4-yl)propyl] isoxazole-3-carboxamide]
≥ 80%: pest or weed control at 200 ppm [3] | pest or weed control at 200 ppm [2]

CNC(=O)c1ccc(C(C)(CNC(=O)c2cc(-c3ccc(F)cc3F)on2)c2cnn(C)c2)nc1 (stereo not shown) [Compound P-56, 5-(2,4-difluorophenyl)-N-[2-[5-(methylcarbamoyl)-2-pyridyl]-2-(1-methylpyrazol-4-yl)propyl]isoxazole-3-carboxamide]
≥ 80%: pest or weed control at 200 ppm [2]

Cn1cc(C(C)(CNC(=O)c2cc(C3CC3)on2)c2cccc(Cl)n2)cn1 (stereo not shown) [Compound P-78, N-[2-(6-chloro-2-pyridyl)-2-(1-methylpyrazol-4-yl)propyl]-5-cyclopropyl-isoxazole-3-carboxamide]
≥ 80%: inhibition of growth at 20 ppm [7] | inhibition of growth at 20 ppm [1] | inhibition of growth at 20 ppm [5]

Cn1cc(C(C)(CNC(=O)c2cc(-c3ccc(F)cc3F)on2)c2ccncn2)cn1 (stereo not shown) [Compound P-23, 5-(2,4-difluorophenyl)-N-[2-(1-methylpyrazol-4-yl)-2-pyrimidin-4-yl-propyl]isoxazole-3-carboxamide]
≥ 80%: pest or weed control at 200 ppm [3] | pest or weed control at 200 ppm [2]

Cn1ncc(C(CNC(=O)c2cc(-c3ccc(F)cc3F)on2)c2cccc(C#N)n2)c1Cl (stereo not shown) [Compound P-117]
≥ 80%: inhibition of growth at 20 ppm [7] | inhibition of growth at 20 ppm [4] | inhibition of growth at 20 ppm [1] | inhibition of growth at 20 ppm [5] | inhibition of growth at 20 ppm [8]

Cn1cc(C(C)(CNC(=O)c2cc(-c3ccc(F)cc3F)on2)c2cccc(N)n2)cn1 (stereo not shown) [Compound P-50, N-[2-(6-amino-2-pyridyl)-2-(1-methylpyrazol-4-yl)propyl]-5-(2,4-difluorophenyl) isoxazole-3-carboxamide]
≥ 80%: inhibition of growth at 20 ppm [7] | inhibition of growth at 20 ppm [4] | inhibition of growth at 20 ppm [1] | inhibition of growth at 20 ppm [5] | inhibition of growth at 20 ppm [8] | pest or weed control at 200 ppm [2]

CNC(=O)c1cccc(C(C)(CNC(=O)c2cc(-c3ccc(F)cc3F)on2)c2cnn(C)c2)n1 (stereo not shown) [Compound P-45, 5-(2,4-difluorophenyl)-N-[2-[6-(methylcarbamoyl)-2-pyridyl]-2-(1-methylpyrazol-4-lyl)propyl]isoxazole-3-carboxamide]
≥ 80%: pest or weed control at 200 ppm [2]

Cn1cc(C(C)(CNC(=O)c2cc(C3CCCCC3)on2)c2cccc(Cl)n2)cn1 (stereo not shown) [Compound P-79, N-[2-(6-chloro-2-pyridyl)-2-(1-methylpyrazol-4-yl)propyl]-5-cyclohexyl-isoxazole-3-carboxamide]
≥ 80%: inhibition of growth at 20 ppm [7] | inhibition of growth at 20 ppm [4] | inhibition of growth at 20 ppm [1] | inhibition of growth at 20 ppm [5] | pest or weed control at 200 ppm [2]

Cn1cc(C(C)(CNC(=O)c2nnc(-c3ccc(F)cc3F)s2)c2ccc(Cl)cn2)cn1 (stereo not shown) [Compound P-17, N-[2-(5-chloro-2-pyridyl)-2-(1-methylpyrazol-4-yl)propyl]-5-(2,4-difluorophenyl)-1,3,4-thiadiazole-2-carboxamide]
≥ 80%: inhibition of growth at 20 ppm [7] | inhibition of growth at 20 ppm [4] | inhibition of growth at 20 ppm [1] | inhibition of growth at 20 ppm [5]
